Where a name gives a salt, the structure may show the parent alone. Read-outs that look alike come from different tables or passages of the source.
How the values were obtained:
[1] = 70° C., 5 mbar; for change in HPLC-purity upon vacuum drying (in words): up to 9 d
Method: (§1) To investigate the stability of the different forms of Pemetrexed Disodium a stability test concerning storage at different relative humidity, storage in the presence of light and stability under drying conditions was carried out.
Four samples were stored at 70° 5 mbar in laboratory vacuum oven. IPC were taken after 2 d, 9 d
(§2) HPLC analysis was done on an Agilent 1100 system equipped with DAD detector using a Zorbax SB-Phenyl column (150×4.6 mm, 3 μm). Measurements were done at 230 nm wavelengths at 25° C. using a flow of 1.0 mL/min and 8 min post-run time. […] Sample preparation: 10 mg sample in 25 mL water:ACN=1:1, 5 uL injection.

[2] = for H2O (KFT) / HPLC-purity (10.5 min) / PXRD / HPLC-purity: dark, air; for change in HPLC purity in any of the samples (in words): all relative humidities tested (5% to 70%)
[3] = for change in HPLC purity in the presence of light (in words) / change in color in the presence of light (in words): text says after 16 d
Method: as §1
The samples were stored in double PE plastic bags and exposed to daylight IT=20° C. to 25° C. IPCs were taken after 15 d.
as §2

[4] = starting material, before storage
Method: HPLC analysis was done on an Agilent 1100 system equipped with DAD detector using a Zorbax SB-Phenyl column (150×4.6 mm, 3 μm). Measurements were done at 230 nm wavelengths at 25° C. using a flow of 1.0 mL/min and 8 min post-run time. As mobile phase water containing 0.03% TFA and acetonitrile containing 0.025% TFA were used, solvents were HPLC grade. Sample preparation: 10 mg sample in 25 mL water:ACN=1:1, 5 uL injection. Retention time Pemetrexed Disodium: 10.3 min.
PXRD: Routine PXRD measurements were carried out on a Bruker AXS D8Advance diffractometer equipped with CuKα source with CuKβ filter and a VANTEC detector (Ser. No.: 202964). Measurement parameters: 3° 2theta to 39.9° 2theta, step time: 2s, step size: 0.022°, T=25° C., X-ray generator: 35 kV/40 mA.

[5] = Barnett et al., Organic Process Research & Development, 1999, 3, 184-188; cited from earlier work
[6] = 5% to 12% relative humidity, 2 d, measured 11.7% (Form A 5.8%), 23° C.
[7] = 5% to 12% relative humidity, 5 d, measured 9.5% (Form A 5.3%), 24° C.
[8] = 5% to 12% relative humidity, 9 d, measured 9% (Form A 6%), 24° C.
[9] = 5% to 12% relative humidity, 16 d, measured 8.5% (Form A 5.8%), 24° C.
[10] = 27% to 33% relative humidity, 2 d, measured 29.8% (Form A 28%), 23° C.
[11] = 27% to 33% relative humidity, 5 d, measured 29% (Form A 27%), 24° C.
[12] = 27% to 33% relative humidity, 9 d, measured 31% (Form A 30%), 24° C.
[13] = 27% to 33% relative humidity, 16 d, measured 30.4% (Form A 28.7%), 24° C.
[14] = 39% to 50% relative humidity, 2 d, measured 41.1% (Form A 39%), 23° C.
[15] = 39% to 50% relative humidity, 5 d, measured 42.8% (Form A 38.6%), 24° C.
[16] = 39% to 50% relative humidity, 9 d, measured 48% (Form A 47%), 24° C.
[17] = 39% to 50% relative humidity, 16 d, measured 47.3% (Form A 46.4%), 24° C.
[18] = 60% to 70% relative humidity, 2 d, measured 61%, 22° C. (Form A 54%, 23° C)
[19] = 60% to 70% relative humidity, 5 d, measured 63% (Form A 57%), 24° C.
[20] = 60% to 70% relative humidity, 9 d, measured 69% (Form A 68%), 24° C.
[21] = 60% to 70% relative humidity, 16 d, measured 66.9% (Form A 67.2%), 24° C.
[22] = daylight, listed as Pemetrexed Disodium Form IV
[23] = double PE plastic bags, daylight, 20° C. to 25° C., 15 d
[24] = 2 d, listed as Pemetrexed Disodium Heptahydrate

Nc1nc(O)c2c(CCc3ccc(C(=O)N[C@@H](CCC(=O)O)C(=O)O)cc3)c[nH]c2n1 [Form IV, disodium N-[4-[2-(2-amino-4,7-dihydro-4-oxo-3H-pyrrolo[2,3-d]-pyrimidin-5-yl)ethyl]benzoyl]-L-glutamic acid salt]
HPLC-purity (10.5 min) ([1]; 2 d): 99.70% | PXRD ([1]; 2 d): Form IV | HPLC-purity (10.5 min) ([1]; 9 d): 99.80% | change in water content upon vacuum drying (in words) ([1]; after 9 d): no significant change | change in HPLC-purity upon vacuum drying (in words) ([1]; listed as Pemetrexed Disodium Form IV): no significant change | change in water content (in words) ([2]; 5% to 12% rel. humidity (for Form A and Form IV: 7% to 12%), up to 16 d, listed as Pemetrexed Disodium Form IV): does not show significant change | H2O (KFT) [2, 6]: 1.0% | HPLC-purity (10.5 min) [2, 6]: 99.66% | PXRD [2, 6]: Form IV | HPLC-purity (10.5 min) [2, 7]: 99.60% | PXRD [2, 7]: Form IV | HPLC-purity (10.5 min) [2, 8]: 99.83% | PXRD [2, 8]: Form IV | HPLC-purity [2, 9]: 99.88% | PXRD [2, 9]: Form IV | change in water content (in words) ([2]; 27% to 33% rel. humidity, up to 16 d, listed as Pemetrexed Disodium Form IV): does not show significant change | HPLC-purity [2, 10]: 99.81% | PXRD [2, 10]: Form IV | HPLC-purity [2, 11]: 99.73% | PXRD [2, 11]: Form IV | HPLC-purity [2, 12]: 99.82% | PXRD [2, 12]: Form IV | HPLC-purity [2, 13]: 99.86% | PXRD [2, 13]: Form D | HPLC-purity [2, 14]: 99.84% | PXRD [2, 14]: Form IV | HPLC-purity [2, 15]: 99.78% | PXRD [2, 15]: Form IV | HPLC-purity [2, 16]: 99.76% | PXRD [2, 16]: Form IV | PXRD ([2]; 39% to 50% relative humidity, 9 d, measured 48% (Form A 47%), 24° C., listed as Pemetrexed Disodium Form IV): without significant change | HPLC-purity [2, 17]: 99.81% | PXRD ([2]; 39% to 50% relative humidity, 16 d, measured 47.3% (Form A 46.4%), 24° C., listed as Pemetrexed Disodium Form IV): traces of Pemetrexed Disodium Heptahydrate | change in water content (in words) ([2]; 40% to 50% rel. humidity, up to 16 d, listed as Pemetrexed Disodium Form IV): slight increase | change in water content (in words) ([2]; 60% to 70% rel. humidity, after 2 d): significant increase | HPLC-purity [2, 18]: 99.83% | PXRD ([2]; 60% to 70% relative humidity, 2 d, measured 61%, 22° C. (Form A 54%, 23° C), listed as Pemetrexed Disodium Form IV): partial transformation to Pemetrexed Disodium Heptahydrate | HPLC-purity [2, 19]: 99.75% | PXRD [2, 19]: Heptahydrate | PXRD ([2]; 60% to 70% relative humidity, 5 d, measured 63% (Form A 57%), 24° C., listed as Pemetrexed Disodium Form IV): Transformation to Pemetrexed Disodium Heptahydrate is complete | HPLC-purity [2, 20]: 99.85% | PXRD [2, 20]: Heptahydrate | HPLC-purity [2, 21]: 99.81% | PXRD [2, 21]: Heptahydrate | change in HPLC purity in any of the samples (in words) ([2]; up to 16 d): No significant change | HPLC-purity ([3]; daylight study, Start): 99.83% | change in HPLC purity in the presence of light (in words) [3, 22]: slight decrease | change in color in the presence of light (in words) [3, 22]: without significant change | HPLC-purity [3, 23]: 99.44% | HPLC-purity (10.5 min) [4]: 99.85% | PXRD [4]: Form IV

Nc1nc(O)c2c(CCc3ccc(C(=O)N[C@@H](CCC(=O)O)C(=O)O)cc3)c[nH]c2n1 [Heptahydrate, disodium N-[4-[2-(2-amino-4,7-dihydro-4-oxo-3H-pyrrolo[2,3-d]-pyrimidin-5-yl)ethyl]benzoyl]-L-glutamic acid salt]
HPLC-purity (10.5 min) ([1]; 2 d): 99.86% | PXRD ([1]; 2 d): 2.5 hydrate | H2O (KFT) [1, 24]: 8.4% | PXRD [1, 24]: only 2.5 hydrate | HPLC-purity (10.5 min) ([1]; 9 d): 99.80% | change in HPLC-purity upon vacuum drying (in words) ([1]; listed as Pemetrexed Disodium Heptahydrate): No significant change | H2O (KFT) [2, 6]: 19.7% | HPLC-purity (10.5 min) [2, 6]: 99.70% | HPLC-purity (10.5 min) [2, 7]: 99.73% | HPLC-purity (10.5 min) [2, 8]: 99.86% | HPLC-purity [2, 9]: 99.88% | PXRD ([2]; 5% to 12% relative humidity, 16 d, measured 8.5% (Form A 5.8%), 24° C., listed as Pemetrexed Disodium Heptahydrate): almost complete transformation to Pemetrexed Disodium 2.5 hydrate | HPLC-purity [2, 10]: 99.74% | HPLC-purity [2, 11]: 99.62% | HPLC-purity [2, 12]: 99.84% | HPLC-purity [2, 13]: 99.91% | PXRD [2, 13]: Heptahydrate | HPLC-purity [2, 14]: 99.84% | HPLC-purity [2, 15]: 99.78% | PXRD [2, 15]: Heptahydrate | HPLC-purity [2, 16]: 99.81% | PXRD [2, 16]: Heptahydrate | HPLC-purity [2, 17]: 99.91% | PXRD [2, 17]: Heptahydrate | HPLC-purity [2, 18]: 99.63% | HPLC-purity [2, 19]: 99.81% | PXRD [2, 19]: Heptahydrate | HPLC-purity [2, 20]: 99.81% | PXRD [2, 20]: Heptahydrate | HPLC-purity [2, 21]: 99.90% | PXRD [2, 21]: Heptahydrate | change in HPLC purity in any of the samples (in words) ([2]; up to 16 d): No significant change | HPLC-purity ([3]; daylight study, Start): 99.63% | change in HPLC purity in the presence of light (in words) ([3]; daylight): do not show significant changes | change in color in the presence of light (in words) ([3]; daylight): do not show significant changes | HPLC-purity [3, 23]: 99.65% | HPLC-purity (10.5 min) [4]: 99.90%

Nc1nc(O)c2c(CCc3ccc(C(=O)N[C@@H](CCC(=O)O)C(=O)O)cc3)c[nH]c2n1 [disodium salt II, disodium N-[4-[2-(2-amino-4,7-dihydro-4-oxo-3H-pyrrolo[2,3-d]-pyrimidin-5-yl)ethyl]benzoyl]-L-glutamic acid salt]
hygroscopicity (in words) [5]: hygroscopic solid

Reference: patent US9174991B2, “Crystalline form of pemetrexed disodium” (Azad Pharmaceutical Ingredients AG, priority 2009, dated 2015)
